# Assay results from patent US20140073637A1, “AMINO-SUBSTITUTED-ALKYLOXY-BENZO[E]PYRIDO[4,3-B]INDOLE DERIVATIVES AS NEW POTENT KINASE INHIBITORS” (INSTITUT CURIE, priority 2011, published 2014).
# How the values were obtained:
# NUAK1 [1] = target: T1, NUAK1 (Homo sapiens, UniProt O60285); experiment: Nuak1 inhibition in cellulo: LATS1 stabilization by western blot; type: cell-based; conditions: HeLa cells treated ON; whole cell extracts, WB, compared to control
# T1 construct: Reaction biology Corp (USA), service
# T1 sequence (O60285 1-661): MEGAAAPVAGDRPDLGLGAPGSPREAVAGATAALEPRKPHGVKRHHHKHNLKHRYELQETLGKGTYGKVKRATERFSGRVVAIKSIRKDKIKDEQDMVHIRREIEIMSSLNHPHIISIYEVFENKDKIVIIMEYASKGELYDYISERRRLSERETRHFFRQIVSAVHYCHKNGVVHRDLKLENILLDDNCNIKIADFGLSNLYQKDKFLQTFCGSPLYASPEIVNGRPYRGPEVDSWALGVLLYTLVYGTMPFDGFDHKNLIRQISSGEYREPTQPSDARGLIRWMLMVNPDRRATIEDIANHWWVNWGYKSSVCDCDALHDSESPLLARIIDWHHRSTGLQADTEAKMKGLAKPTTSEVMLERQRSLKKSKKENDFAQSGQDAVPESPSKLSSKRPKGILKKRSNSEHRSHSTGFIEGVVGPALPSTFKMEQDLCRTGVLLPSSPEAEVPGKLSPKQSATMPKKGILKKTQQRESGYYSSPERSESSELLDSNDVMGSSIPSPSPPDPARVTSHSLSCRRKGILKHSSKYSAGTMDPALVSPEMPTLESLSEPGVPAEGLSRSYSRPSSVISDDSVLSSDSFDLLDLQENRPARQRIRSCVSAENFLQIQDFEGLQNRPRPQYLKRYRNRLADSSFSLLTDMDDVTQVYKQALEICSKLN
# Method: HeLa cells were treated ON by C21 (also named CH21) and C14M and compared to the control (C0). Whole cell extracts were analyzed by WB with anti LATS1 monoclonal antibody and the loading was quantified through the tubulin signal.
# Therefore the possibility of inhibiting Nuakl, in cellulo, was evaluated through the stabilization of the Large Antigen Tumour Suppressor LATS1.
# Cells were treated by compounds, harvested and lyzed in 9M urea then supplemented with Laemmli sample buffer. Cell extracts were subjected to SDS-PAGE and transferred to nitrocellulose filter (GE Healthcare). After blocking with 5% non-fat milk in PBS for at least 1 hour, the membranes were incubated with the primary antibodies. The following antibodies were used: phospho-Histone H3 Ser10 (1:2000, Upstate Biotechnology), anti LAST1 (Cell signalling), anti Aurora B (epitomics) and anti alpha-tubulin (Sigma) Anti-rabbit horseradish peroxidase (1:5000, GE Healthcare) was used as secondary antibodies. Bands were visualized by ECL technique (Amersham Bioscience).
# NUAK1 [2] = target: T1, NUAK1; experiment: In vitro IC50 on recombinant kinase; type: biochemical
# Method: The efficiency of the 3-amino-ethoxy compounds to inhibit Nuak1 was determined in vitro.
# (§1) The profiling was performed at the MRC (Dundee University), in duplicate, on a set of 121 kinases. The panel is representative of the major different classes of kinases. Compounds were used at the concentration of 1 μM. In vitro, IC50 were determined on recombinant kinases by Reaction biology Corp (USA).
# Quiescent H358 cells = experiment: Viability of quiescent (serum-deprived) cells; type: cell-based; conditions: 0.5 μM, 96 hours post-treatment, absence of serum
# Method: FIG. 5: Quiescent H358 cells were incubated with the compound, for 96 h, in the absence of serum. Three different concentrations of C14 were used and live cells were estimated with MTT (Promega). In the control only DMSO was added.
# H358 cells were deprived in serum for 2 days and then incubated with the compound, for 96 h, still in the absence of serum. At the concentration (0.5 μM) that induced death of more than 50% of cycling cells, 90% of the cells are still alive 96 hours post-treatment (FIG. 5). C14 is thus not deleterious for quiescent cells.
# Cells were drawn to quiescence by serum withdrawn. After two days of serum deprivations cells were incubated with different concentrations of compounds for 96 hours, serum being still omitted. The viability is determined as described above.
# Jak2 = Jak2 (Homo sapiens, UniProt O60674); experiment: Kinase profiling in vitro at 1 μM; type: biochemical; conditions: 1 microMolar in vitro, read-out: Percent of remaining activity
# Method: as §1, with “The specificity of C14 was tested, in vitro, against 121 kinases representative of the kinome. Assays run in duplicate, at the concentration of 1 μM, were performed by MRC (Dundee, UK). Results are represented in FIG. 1. The main targets are highlighted in FIG. 1B. The profiling” for “The profiling”
# NUAK1 [3] = target: T1, NUAK1; experiment: Kinase profiling in vitro at 1 μM; type: biochemical; conditions: 1 microMolar in vitro, read-out: Percent of remaining activity
# Method: as §1, with “The specificity of C14 was tested, in vitro, against 121 kinases representative of the kinome. Assays run in duplicate, at the concentration of 1 μM, were performed by MRC (Dundee, UK). Results are represented in FIG. 1. The main targets are highlighted in FIG. 1B. The profiling” for “The profiling”
# H358 spheroids = experiment: Multicellular tumour spheroid (MTS) growth; type: cell-based
# Method: H358 cells were cultured in 3-Dimensions. At day 1, the compound was added at the concentration of 0.6 μM. The spheroid growth was measured each day and expressed as a growth ratio (Vd−Vo/Vo); d for day and o for the starting day. The evolution of the volume of the spheroids is expressed in function of the time (in days). Spheroids grown in the presence of C1 are indicated by triangles whereas rectangles indicate spheroids treated by C14; control spheroids are visualized by diamonds.
# In order to get some insight in C14 effects towards organized cells, the inventors have followed H358 spheroid expansion (FIG. 9). Organized 3-dimension spheroids were treated by either C14 (0.5 μM) or C1 (0.5 μM) or DMSO (control). […] C14 was thus found efficient to prevent cell growth even when cells mimicked tissue organization.
# The inventors applied the hanging-drop method to produce H358 spheroids of similar diameters. 1400 cells were suspended on the lid of an agar coated 24-petri dishes containing culture medium. 48 h later, the spheroids were transferred to the culture medium. Spheroid volumes were measured before (Day 0) and during the drug treatment (Day N). H358 spheroids were treated by compounds at the concentration of 0.6 μM. Control H358 spheroids were grown under the same conditions without drug treatment. The size of each spheroid was determined by measuring 2 diameters (d1 and d2) using an inverted microscope. The volume was calculated according to the formula: V=4/3π^3 where r=½√d1xd2. Spheroid growth was calculated by measuring the variations in volume and compared to the initial volume V0. The growth ratio was defined as (Vd−Vo)/Vo. Data are the mean of at least three determinations on different spheroids.
# Water solubility = type: physicochemical
# Sequence of Jak2 (O60674 whole entry, species assumed): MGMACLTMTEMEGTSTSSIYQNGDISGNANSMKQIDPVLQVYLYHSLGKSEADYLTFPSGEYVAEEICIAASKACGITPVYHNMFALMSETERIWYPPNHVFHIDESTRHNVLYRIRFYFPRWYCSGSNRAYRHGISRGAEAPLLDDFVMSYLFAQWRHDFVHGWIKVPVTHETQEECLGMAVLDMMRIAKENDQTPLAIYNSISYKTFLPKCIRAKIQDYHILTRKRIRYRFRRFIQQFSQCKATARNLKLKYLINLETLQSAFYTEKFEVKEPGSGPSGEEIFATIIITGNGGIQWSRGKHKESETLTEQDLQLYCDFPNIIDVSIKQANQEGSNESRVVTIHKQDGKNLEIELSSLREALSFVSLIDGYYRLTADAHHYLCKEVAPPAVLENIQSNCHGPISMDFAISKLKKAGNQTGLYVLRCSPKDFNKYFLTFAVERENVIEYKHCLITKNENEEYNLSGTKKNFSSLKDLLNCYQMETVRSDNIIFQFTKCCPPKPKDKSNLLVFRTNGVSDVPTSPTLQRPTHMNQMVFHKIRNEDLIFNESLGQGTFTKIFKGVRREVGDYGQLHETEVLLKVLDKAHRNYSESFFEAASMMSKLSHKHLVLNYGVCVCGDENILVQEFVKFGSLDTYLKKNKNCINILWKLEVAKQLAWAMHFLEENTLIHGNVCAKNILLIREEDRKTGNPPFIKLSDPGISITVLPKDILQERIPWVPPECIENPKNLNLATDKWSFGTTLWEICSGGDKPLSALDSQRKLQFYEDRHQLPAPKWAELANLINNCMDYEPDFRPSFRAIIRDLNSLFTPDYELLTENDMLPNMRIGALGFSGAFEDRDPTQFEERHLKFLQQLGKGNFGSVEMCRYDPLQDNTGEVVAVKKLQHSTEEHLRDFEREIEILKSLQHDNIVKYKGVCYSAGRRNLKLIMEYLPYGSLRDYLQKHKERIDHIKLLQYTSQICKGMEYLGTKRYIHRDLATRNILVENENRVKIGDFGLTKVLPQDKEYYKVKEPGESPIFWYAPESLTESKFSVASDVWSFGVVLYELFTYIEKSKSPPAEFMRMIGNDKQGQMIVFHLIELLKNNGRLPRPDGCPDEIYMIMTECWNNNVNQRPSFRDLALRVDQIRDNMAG
Structure (SMILES),LATS1 protein level (in words) (NUAK1 [1]),IC50 (NUAK1 [2]) [nM],cells still alive (Quiescent H358 cells) [%],remaining activity at 1 µM (Jak2) [%],remaining activity at 1 µM (NUAK1 [3]) [%],"duration of effect on spheroid growth (H358 spheroids; 0.5 μM, 0.6 μM)","effect on 3D-H358 cell (spheroid) growth (in words) (H358 spheroids; 0.5 μM, 0.6 μM)","spheroid size at day 10 (in words) (H358 spheroids; day 10, compared with C1-treated spheroids)",solubility in water (in words) (Water solubility)
"Cc1cncc2c1[nH]c1ccc3cc(OCCN(C)C)ccc3c12 [CH21, 3-(2-N,N-dimethylaminoethyloxy)-8-methyl-7H-benzo[e]pyrido(4,3-b)indole]",large increase,,,,,,,,
"Cc1c[nH]c(=O)c2c1[nH]c1ccc3cc(OCCN(C)C)ccc3c12 [Compound C14, 3-(2-N,N-Dimethylaminoethoxy)-8-methyl-7H,10H-benzo[e]pyrido(4,3-b)indol-11-one]",,1.4,90,21,4,at least 5 days,affected significantly,smaller than their counterparts treated by C1,water soluble
